Our source for the IC50 values is patent US20110028509A1, “Sulfonamides” (MERCK SERONO SA, priority 2008, published 2011).

Molecules are shown by their SMILES.

The target in assay [1] is T1, CXCR3 (Homo sapiens, UniProt P49682).
T1 sequence (P49682 1-368): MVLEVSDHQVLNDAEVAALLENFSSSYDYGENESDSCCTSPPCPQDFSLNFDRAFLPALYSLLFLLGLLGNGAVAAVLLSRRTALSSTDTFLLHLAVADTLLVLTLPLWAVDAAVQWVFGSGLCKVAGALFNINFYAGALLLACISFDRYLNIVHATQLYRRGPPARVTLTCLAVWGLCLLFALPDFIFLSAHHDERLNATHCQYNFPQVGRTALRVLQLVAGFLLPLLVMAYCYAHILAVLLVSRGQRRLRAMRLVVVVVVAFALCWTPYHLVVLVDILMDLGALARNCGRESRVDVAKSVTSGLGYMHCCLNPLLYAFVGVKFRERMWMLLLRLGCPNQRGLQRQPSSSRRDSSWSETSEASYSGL
Description: Chemotaxis assay ITAC (CXCL11), L1.2-CXCR3 cells. The following applies: 1 nM CXCL11 (I-TAC), 4 hours. Format: cell-based. More on the design: expressed in transfected cells. On the procedure: Human CXCR3 cDNA was amplified by PCR from a human cells cDNA library (Clontech) and subcloned into pcDNA3.1 (Invitrogen). Murine pre-B L1.2 cells were transfected with hCXCR3-pcDNA3.1 and were grown at 37° C., 5% CO2 in RPMI 1640 medium (Invitrogen, USA) supplemented with 5% heat inactivated fetal calf serum (Cancerra, Australia), 2 mM glutamine (Invitrogen), 50 units ml−1 penicillin, 50 μml−1 streptomycin. Stable transfectant clonal populations were selected using 800 μg/ml geneticin.
L1.2-CXCR3 cells were grown for 24 hours at 0.5×10^6 cells/ml in chemotaxis medium containing 5 mM butyric acid (Sigma). Compounds were on one hand mixed with 1 nM of CXCL11 (I-TAC) in phenol-red free RPMI 1640 (invitrogen) supplemented with 5% fetal bovine serum in presence of 1% DMSO. The CXCL11/compounds mixture was then added to lower chambers of chemotaxis 96 well microplates (neuroprobe), and framed filters ([…] pore size) were put on top of the lower chambers. Compounds were on the other hand mixed with L1.2 CXCR3 cells and incubated in chemotaxis medium at 1.5×10^6 cells/ml in presence of 1% DMSO at 37° C., 5% CO2 for 30 minutes. Cells/compounds mixture was then added on top of the frame filters and migration was performed at 37° C., 5% CO2 for 4 hours. The number of migrated cells in the bottom chamber was determined using the CyQuant GR dye (Molecular Probe), according to the manufacturer.

Assay [2] concerns the target T1, CXCR3. Description: CXCR3 Ca2+ mobilization (FLIPR), stable hCXCR3-CHO cell line, I-TAC stimulated. Format: cell-based. More on the design: host or cells: CHO cells stably expressing hCXCR3. The following applies: hCXCR3-CHO cells, I-TAC 100 nM stimulated Ca2+ response; read-out: Ca-ITAC. On the procedure: Human chinese hamster ovary (CHO) cell line stably expressing hCXCR3 was purchased from Euroscreen (Belgium) and culture in HAM's F12 (Invitrogen) containing 10% heat inactivated fetal calf serum (Cancerra, Australia), 50 units ml−1 penicillin, 50 μml−1 streptomycin, (Invitrogen, USA) and 400 μg/ml geneticin (G418) (Calbiochem, San Diego), according to the manufacturer.
CXCR3Ca^2+ mobilization was measured using a stable hCXCR3—CHO cell line and a microtiter-plate based assay using FLIPR^TETRA™ (Molecular Devices). In more detail, cells were harvested and plated into black 384-well plates (Becton-Dickinson) at a density of 15 000 cells per well and grown in the incubator for 18 hours. On the next day the media was aspirated and replaced with the cell loading buffer (HBSS—(Invitrogen) based buffer containing calcium indicator and signal enhancer from a commercial Ca2+ assay kit (Becton Dickinson). The plates were incubated for 60 minutes in the incubator, the test compounds were added and the plates equilibrated for 20 minutes at room temperature.
Plates were placed into FLIPR and the CXCR3 agonist (I-TAC, 100 nM) stimulated fluorescence change was quantitated. The activity of CXCR3 antagonists was determined as percent of the CXCR3 ligand I-TAC in the absence of the test compounds (=100% activity).
For orientation: Calcium flux is commonly read through the fluorescence of an indicator in the cells.

For `N#Cc1ccc(S(=O)(=O)N(Cc2ccc(C(=O)O)c(F)c2)Cc2ccccn2)cc1` [Example 67, 4-{[[(4-cyanophenyl)sulfonyl](pyridin-2-ylmethyl)amino]methyl}-2-fluorobenzoic acid], the IC50 stood at 3060 nM against CXCR3 [1] and 505 nM at CXCR3 [2].

Consider `Cn1c(CNC(=O)c2ccc(CN(Cc3ccccn3)S(=O)(=O)c3ccc(C#N)cc3)cc2)nc2ccccc21` [Example 143], for which the results for the IC50 against CXCR3 [1] and on CXCR3 [2] were 1000 nM and 400 nM, respectively.

Molecule `O=C(NCC1CC1)c1ccc(CN(Cc2cccc[n+]2[O-])S(=O)(=O)c2ccc(Cl)cc2)cc1` [Example 134, 4-{[(4-Chloro-benzenesulfonyl)-(1-oxy-pyridin-2-ylmethyl)-amino]-methyl}-N-cyclopropylmethyl-benzamide] returned an IC50 on CXCR3 [1] of 2980 nM.

`O=S(=O)(c1ccc(Cl)cc1)N(Cc1ccc(-c2nnn[nH]2)cc1)Cc1cccnc1` [Example 71, 4-chloro-N-(pyridin-3-ylmethyl)-N-[4-(2H-tetrazol-5yl)benzyl]benzene sulfonamide]: the results for the IC50 against CXCR3 [1] and on CXCR3 [2] were 1540 nM and 16000 nM, respectively.

In turn, `N#Cc1ccc(S(=O)(=O)N(Cc2ccccn2)C2(c3ccc(C(=O)NC4(c5ccccc5)CC4)cc3)CC2)cc1` [Example 176] had an IC50 against CXCR3 [1] of 4450 nM.

`Cc1nnc(CNC(=O)c2ccc(CN(Cc3ccccn3)S(=O)(=O)c3ccc(C#N)cc3)cc2)o1` [Example 142]: the IC50 is 4180 nM against CXCR3 [1] and 10000 nM on CXCR3 [2].

Consider `O=S(=O)(c1ccc(Cl)cc1)N(Cc1ccc(-c2nnn[nH]2)cc1)Cc1ccc2ccccc2n1` [Example 75], for which the IC50 was found to be 2520 nM against CXCR3 [1] and 2000 nM at CXCR3 [2].

Take `N#Cc1ccc(S(=O)(=O)N(Cc2ccc(C(=O)NCc3ccccn3)cc2)Cc2ccccn2)cc1` [Example 135]: the figures for the IC50 on CXCR3 [1] and on CXCR3 [2] were 750 nM and 900 nM, respectively.

Take `CCOc1ccc(S(=O)(=O)N(Cc2ccc(C(=O)N[C@H](CO)Cc3ccccc3)cc2)Cc2ccccn2)cc1` [Example 87]: the figures for the IC50 on CXCR3 [1] and on CXCR3 [2] were 760 nM and 17000 nM, respectively.

As for `COC(=O)c1ccc(CNC(=O)c2ccc(CN(Cc3ccccn3)S(=O)(=O)c3ccc(Cl)cc3)cc2)cc1` [Example 132], the IC50 against CXCR3 [1] is 270 nM; at CXCR3 [2], 900 nM.

As for `CC(C)(C)OC(=O)N1C[C@@H]2[C@H](C1)[C@H]2NC(=O)c1ccc(CN(Cc2ccccc2)S(=O)(=O)c2ccc(Cl)cc2)cc1` [Example 106], the results for the IC50 against CXCR3 [1] and at CXCR3 [2] were 510 nM and 300 nM, respectively.

Take `N#Cc1ccc(S(=O)(=O)N(Cc2ccc(C(=O)NC3(c4ccc(Cl)cc4)CC3)cc2)Cc2ccccn2)cc1` [Example 126]: the IC50 on CXCR3 [1] amounted to 170 nM; at CXCR3 [2] it was 700 nM.

As for `N#Cc1ccc(S(=O)(=O)N(Cc2ccc(C(=O)NC3(c4ccccc4)CC3)cc2)Cc2cccnc2)cc1` [Example 113], the IC50 amounted to 1300 nM on CXCR3 [1] and 320 nM at CXCR3 [2].

For `CC(=O)N1C[C@@H]2[C@H](C1)[C@H]2NC(=O)c1ccc(CN(Cc2ccccc2)S(=O)(=O)c2ccc(Cl)cc2)cc1` [Example 118], the IC50 at CXCR3 [1] was 2610 nM; at CXCR3 [2] it was 3000 nM.

With `N#Cc1ccc(S(=O)(=O)N(Cc2ccc(C(=O)NCCc3cccc(Cl)c3)cc2)Cc2cccnc2)cc1` [Example 110], the figures for the IC50 against CXCR3 [1] and at CXCR3 [2] were 390 nM and 750 nM, respectively.

Turning to `CCOc1ccc(S(=O)(=O)N(Cc2ccc(C(=O)N[C@H]3[C@@H]4CN(C(C)=O)C[C@@H]43)cc2)Cc2ccccn2)cc1` [Example 107], the values for the IC50 against CXCR3 [1] and at CXCR3 [2] were 2070 nM and 5500 nM, respectively.

With `N#Cc1ccc(S(=O)(=O)N(Cc2ccc(C(=O)N[C@@H](Cc3ccccc3)C(N)=O)cc2)Cc2ccccn2)cc1` [Example 100], the IC50 stood at 630 nM on CXCR3 [1] and 200 nM on CXCR3 [2].

In the case of `COC(=O)c1ccc(S(=O)(=O)N(Cc2ccc(C(=O)NC3(c4ccccc4)CC3)cc2)Cc2ccccn2)cc1` [Example 150], the IC50 turned out to be 10 nM against CXCR3 [1] and 300 nM on CXCR3 [2].

In the case of `N#Cc1ccc(S(=O)(=O)N(Cc2ccc(C(=O)NCC(O)c3ccccc3)cc2)Cc2cccnc2)cc1` (stereo not drawn) [Example 109], the IC50 against CXCR3 [1] was found to be 130 nM; on CXCR3 [2] it was 750 nM.

`O=S(=O)(c1ccc(Cl)cc1)N(Cc1ccccc1)Cc1ccc(-c2nnn[nH]2)cc1` [Example 121]: the values for the IC50 on CXCR3 [1] and on CXCR3 [2] were 3890 nM and 3000 nM, respectively.

In the case of `N#Cc1ccc(S(=O)(=O)N(Cc2ccc(C(=O)NCc3ccncc3)cc2)Cc2ccccn2)cc1` [Example 137], the IC50 at CXCR3 [1] amounted to 4310 nM; on CXCR3 [2] it was 3000 nM.

With `N#Cc1ccc(S(=O)(=O)N(Cc2ccc(C(=O)NC(CO)C(O)c3ccccc3)cc2)Cc2cccnc2)cc1` (stereo not drawn) [Example 114], the IC50 was determined as 2500 nM against CXCR3 [1] and 2000 nM on CXCR3 [2].

With `CCOc1ccc(S(=O)(=O)N(Cc2ccc(C(=O)OC)c(OC)c2)Cc2ccccn2)cc1` [Example 188], the IC50 turned out to be 3800 nM against CXCR3 [1] and 10500 nM at CXCR3 [2].

Turning to `COC(=O)C(NC(=O)c1ccc(CN(Cc2ccccn2)S(=O)(=O)c2ccc(Cl)cc2)cc1)c1ccc(F)c(F)c1` (stereo not drawn) [Example 147], the IC50 at CXCR3 [1] was 82 nM; at CXCR3 [2] it was 400 nM.

Molecule `C[C@@H](c1ccc(NC(=O)C2(c3ccccc3)CC2)cc1)N(Cc1ccccn1)S(=O)(=O)c1ccc(Cl)cc1` [Example 164] had an IC50 against CXCR3 [1] of 4270 nM.

Turning to `CCOc1ccc(S(=O)(=O)N(Cc2ccc(C(=O)NC3(c4cccc(Cl)c4)CC3)cc2)Cc2ccccn2)cc1` [Example 124], the IC50 is 160 nM against CXCR3 [1] and 500 nM at CXCR3 [2].

Consider `O=S(=O)(c1ccc(OC(F)(F)F)cc1)N(Cc1ccc(-c2nnn[nH]2)cc1)Cc1ccccn1` [Example 120], for which the IC50 against CXCR3 [1] stood at 4470 nM; at CXCR3 [2], 200 nM.

For the molecule `N#Cc1ccc(S(=O)(=O)N(Cc2ccc(C(=O)NC3(c4cccc(Cl)c4)CC3)cc2)Cc2ccccn2)cc1` [Example 123], the IC50 against CXCR3 [1] came out at 60 nM; on CXCR3 [2], 300 nM.

Consider `N#Cc1cccc(CN(Cc2ccccn2)S(=O)(=O)c2ccc(Cl)cc2)c1` [Example 195], for which the IC50 at CXCR3 [1] came to 6810 nM; at CXCR3 [2], 4200 nM.

For the molecule `O=S(=O)(c1cccc(-c2ccccc2)c1)N(Cc1ccc(-c2nnn[nH]2)cc1)Cc1ccccn1` [Example 166], the IC50 against CXCR3 [1] was 9050 nM; on CXCR3 [2], 1430 nM.

Regarding `N#Cc1ccc(S(=O)(=O)N(Cc2ccc([N+](=O)[O-])cc2)Cc2ccccn2)cc1` [Example 158], the IC50 against CXCR3 [1] is 4800 nM; at CXCR3 [2], 1000 nM.

Consider `O=C(NC1(c2cccc(Cl)c2)CC1)c1ccc(CN(Cc2ccccn2)S(=O)(=O)c2ccc(Cl)cc2)cc1` [Example 122], for which the IC50 at CXCR3 [1] was 240 nM; at CXCR3 [2], 600 nM.

Take `N#Cc1ccc(S(=O)(=O)N(Cc2ccc(C(=O)NCc3ccccc3)cc2)Cc2ccccn2)cc1` [Example 138]: the IC50 is 60 nM against CXCR3 [1] and 100 nM on CXCR3 [2].

In the case of `Cc1nc(CN(Cc2ccc(-c3nnn[nH]3)cc2)S(=O)(=O)c2ccc(Cl)cc2)cs1` [Example 68, 4-chloro-N-(2-methyl-thiazol-4-ylmethyl)-N-[4-(2H-tetrazol-5yl)benzyl]benzenesulfonamide], the IC50 is 130 nM against CXCR3 [1] and 2000 nM at CXCR3 [2].

For the molecule `CC(=O)OC(C(=O)Nc1ccc(CN(Cc2ccccn2)S(=O)(=O)c2ccc(Cl)cc2)cc1)c1ccccc1` (stereo not drawn) [Example 169], the IC50 against CXCR3 [1] is 10 nM; at CXCR3 [2], 700 nM.

Consider `O=S(=O)(c1ccc(Cl)cc1)N(Cc1ccc(-c2nnn[nH]2)cc1)C1CCc2cc(Cl)ccc21` (stereo not drawn) [Example 179], for which the IC50 amounted to 8860 nM at CXCR3 [1] and 350 nM on CXCR3 [2].
